The record followed here is patent US9328128B2 (priority 2010, dated 2016).

The subject of data set [1] is intestinal BBMV phosphatases. Type of data set: biochemical.
In data set [2] the test system is Glucose uptake. Type of data set: cell-based, rat.
Data set [3] deals with rat alkaline phosphatase. Kind of data set: p-nitrophosphate hydrolysis by rat alkaline phosphatase. Type of data set: biochemical. On the procedure:
The results shown in Example A used a 3-second exposure of vesicles and substrates and a 5 minute exposure of vesicles to 2′-FPP. Prior exposure and degradation of 2′-PP in contrast to 2′-FPP could be contributing to the increased potency of 2′-FPP as compared to 2′-PP. To examine this possibility the effect of phosphophloretins on p-nitrophosphate hydrolysis by rat alkaline phosphatase and intestinal BBMV phosphatases was examined.

Data set [4] addresses T1, intestinal brush border membrane Na/phosphate cotransporter, NaPi 2b (Rattus norvegicus, UniProt Q9JJ09).
T1 construct: Rat duodenum/jejunum intestinal strips 1 cm square were incubated in DMEM; from tissue; host or cells: rat duodenum/jejunum intestinal strips
T1 sequence (Q9JJ09 1-695): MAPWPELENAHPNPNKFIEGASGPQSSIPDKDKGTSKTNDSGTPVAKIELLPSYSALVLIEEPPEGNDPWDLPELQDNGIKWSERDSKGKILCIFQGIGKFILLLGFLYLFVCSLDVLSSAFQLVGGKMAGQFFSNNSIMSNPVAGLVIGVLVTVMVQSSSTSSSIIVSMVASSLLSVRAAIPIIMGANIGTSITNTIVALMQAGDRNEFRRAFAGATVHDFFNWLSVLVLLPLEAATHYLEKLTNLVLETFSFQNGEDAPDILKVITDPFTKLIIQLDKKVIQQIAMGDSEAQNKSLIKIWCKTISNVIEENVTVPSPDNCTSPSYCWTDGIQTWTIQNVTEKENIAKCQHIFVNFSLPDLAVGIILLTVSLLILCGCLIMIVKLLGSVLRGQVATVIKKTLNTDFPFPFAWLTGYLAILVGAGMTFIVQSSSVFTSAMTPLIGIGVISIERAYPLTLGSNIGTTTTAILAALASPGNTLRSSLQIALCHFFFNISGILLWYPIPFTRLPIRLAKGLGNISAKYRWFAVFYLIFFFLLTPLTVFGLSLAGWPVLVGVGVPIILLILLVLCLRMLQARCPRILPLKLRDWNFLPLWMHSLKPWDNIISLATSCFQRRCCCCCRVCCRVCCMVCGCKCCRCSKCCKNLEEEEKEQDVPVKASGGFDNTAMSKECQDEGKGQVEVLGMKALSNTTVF
The experiment in a line: cell-based. Type of data set: cell-based.

The conditions of data set [5]: rat, in vivo.
For data set [6] the following is noted: rat, in vivo. This is another data set of the same source.
Data set [7] concerns the target T2, intestinal Na-phosphate cotransporter (Rattus norvegicus, UniProt Q9JJ09).
T2 sequence (Q9JJ09 1-695): T1 sequence (Q9JJ09 1-695)
The data set is classed as biochemical.

The target in data set [8] is T2, intestinal Na-phosphate cotransporter. Type of data set: biochemical. More on the design: other: intestinal BBMV; 3-second exposure of vesicles and substra; 2′-FPP vs 2′-PP. Conditions: read-out: IC50 for inhibition of Na-dependent phosphate uptake.

As for `O=C(CCc1ccc(O)cc1)c1c(O)cc(O)cc1OP(=O)(O)O`, in data set [1], the “inhibition of intestinal BBMV phosphatase activity” value was “approximately 50%”. In data set [2], the Glucose uptake entry was “unaffected”. Besides, the “inhibition of alkaline phosphatase activity, compared with 2′-FPP” value in data set [3] was “better inhibitor”. Further, in data set [4], the 50% inhibitory concentration (IC50) is 15 µM, the “Maximum inhibition of total phosphate absorption” value is 43±6%, the “inhibition of phosphate uptake” value is 40% and the “inhibition of phosphate uptake 6 hours post-drug exposure” value is given as “less than 35%”. In addition, in data set [5], the “change in serum Ca2+” value is listed as “no change” and the “decrease in serum phosphorus” value was 30%. In addition, the side effects result in data set [6] was “no side effects”. Further, the “decrease of IC50 on addition of alkaline phosphatase inhibitors” value in data set [7] was 34%. Moreover, in data set [8], the IC50 was determined as 0.046 µM.

The term IC50 denotes the concentration that inhibits the measured activity by half.
